# Reference: patent US4440757A, “Pharmaceutical composition comprising derivative of aminobenzoic acid for regulating prostaglandin” (priority 1978, dated 1984)
# What was measured:
# [1] = system: sarcoma 180 tumour cells, cyclic AMP; test: Level of cyclic AMP in tumour cells of sarcoma 180; assay type: cell-based, mouse; details: room temperature, 5 min
# Experimental: The present substance was added to 100 μl of the ascites-type tumour taken from the abdominal cavity of sarcoma 180-bearing mice to be a predetermined concentration, in this case, Specimen No. 7, and the mixture was incubated at room temperature for 5 min. After incubation, the culture was boiled, homogenized and centrifugated to obtain a supernatant liquid. The thus obtained supernatant liquid was subjected to the determination of cyclic AMP by the method of Gilman. […] The participation of the present substance in the metabolism of PGs is presumed also from this fact.
# [2] = system: Ehrlich cancer cells; test: PGE in cancer cells and ascites of mouse transplanted with Ehrlich cancer cells; assay type: in vivo, female ICR-JCL mouse; details: 200 mg/kg/day i.p., 5 days
# Experimental: To groups of female ICR-JCL mouse after 5 weeks of her birth, Ehrlich cancer cells were intraperitoneally transplanted at a rate of 1×10^6 cells/animal and one of the present substances, Specimen No. 7 was administered intraperitoneally to the mice every day from the next day of transplantation for 5 days at a rate of 200 mg/kg/day. The mice were sacrificed with ether on the 6th day of transplantation, and the ascites were collected. After adding tetrasodium ethylenediamminetetraacetate with 1% by weight of aspirin into the ascites, it was centrifugated for 10 min at 1500 rpm and a temperature of 4° C. to separate the cancer cells and the supernatant liquid. The supernatant liquid was further centrifugated at 4° C. and 3000 rpm for 15 min. The separated cancer cells was washed with Hank's solution, and was subjected to centrifugation 5 times at 800 rpm for each 5 min to remove impurities such as erythrocytes, etc. The thus purified cancer cells of 1×10^8 in number were homogenized at 0° C. after addition of 7 ml of methanol, and the homogenate was filtered with filter paper. After adding 14 ml of chloroform to the filtrate and mixing, the mixture was left for 30 min at a temperature of 4° C. […] The content of PGE in the solution and in the supernatant liquid of the ascites was determined by ^3 H-ProstaglandinE Radioimmunoassay Kit. […]
# [3] = system: Ehrlich cancer cells; test: PGE in Ehrlich tumour tissue and tumour proliferation (i.p.); assay type: in vivo, female C57BL/6 mouse; details: 100 mg/kg i.p. every other day, 14th day
# Experimental: Ehrlich cancer cells were transplanted subcutaneously to groups of female C57BL/6 mouse after 9 weeks of birth at a rate of 1×10^6 and while feeding the mice, the present substance, Specimen No. 7, was intraperitoneally administered to the mice every other day from the next day of the transplantation at a rate of 100 mg/kg. On 14th day of the transplantation, the mice were sacrificed with ether to extirpate the tumor tissue. After homogenizing the tumour tissue finely cut by scissors with the addition of 7 ml of methanol per gram of the tumour tissue at a temperature of 0° C., the homogenate was filtered with filter paper to obtain a filtrate. After adding 2 times by volume of chloroform to the filtrate, the mixture was well mixed and left for 30 min at 4° C. Then, the cooled mixture was subjected to the same procedures as in Example 11 to determine the content of PGE in the tumour tissue. The content of PGE in the tumour tissue was larger in the animal transplanted with the cancer cells and administered with the present substance than in the control transplanted with the same cancer cells but not administered with the present substance. This face gives an information concerning the participation of the present substance in the metabolism of PGs.
# [4] = system: Ehrlich's cancer cell; test: PGE in Ehrlich tumour and tumour weight (oral); assay type: in vivo, female C57BL/6 mouse; details: 1 g/kg/day oral
# Experimental: Ehrlich's cancer cell were transplanted subcutaneously to groups of female C57BL/6 mouse after 8 weeks of her birth and while feeding the mice, the present substance, Specimen No. 7, was orally administered to each mouse every day at a rate of 1 g/kg/day. On 7th or 14th day of the transplantation, the mice were sacrificed with ether to extirpated the tumour. The tumour was treated by the same procedures as in Example 11 to determine the content of PGE therein. The concentration of PGE in the tumour was larger in the animal transplanted with the cells and administered with the present substance than in the control to which the same cells were transplanted but the present substance was not administered. Further it is observed that the content of PGE decreased in both groups as the time passed, and the rate of decrease was smaller in the group transplanted and administered than in the control group transplanted but not administered. These facts give the information that the present substance participates to the metabolism of PGE.
# [5] = system: Adenocarcinoma 755; test: PGE in tumour of adenocarcinoma 755 and its proliferation; assay type: in vivo, female C57BL/6 mouse; details: 1 g/kg/day oral
# Experimental: Tumour cells of Adenocarcinoma 755 were transplanted subcutaneously to groups of female C57BL/6 mouse of after 8 weeks of birth and while feeding the mice, the present substance, Specimen No. 7, was orally administered every day from the next day of transplantation at a rate of 1 g/kg/day. The mice were sacrificed with ether on 7th or 14th day of transplantation to extirpate the tumour. The thus extirpated tumour was treated by the same procedures as in Example 11 to determine the content of PGE in the tumour.
# [6] = system: sarcoma induced by methylcholanthrene; 6-keto PGF1α; test: Level of 6-keto PGF1α in plasma of sarcoma-bearing rats; assay type: in vivo, spontaneous hypertensive rats (SHR); details: 500 mg/kg/day i.p., 6 days
# Experimental: Cells of sarcoma induced by methylcholanthrene were transplanted on the back of a group of spontaneous hypertensive rats (SHR) subcutaneously at a rate of 1×10^6 cells/animal, and while feeding the rats, the present substance, Specimen No. 7, was daily administered intraperitoneally for consecutive 6 days from after 24 hours of the transplantation at a rate of 500 mg/kg/day. After 2 weeks of the ending of administration, whole blood was collected to obtain a fraction of plasma. The ether-extract of the plasma was separated by thin layer chromatography and after converting the extract into a methyloximesilyl derivative, the variation of the level 6-keto PGF1α in the extract was examined by gas-chromatography and masspectroscopy.
smiles,measurement,setting,value
"O=C(O)c1ccc(NC2OC[C@@H](O)[C@H](O)[C@H]2O)cc1 (stereo partly drawn) [Specimen No. 7, Sodium p-aminobenzoate-N--D-xyloside]",level of cyclic AMP in tumour cells (FIG. 10),[1],raising the level of cyclic AMP in the tumour cells of sarcoma 180
same,Content of PGE in supernatant liquid of ascites,[2]; control 0.26,0.12 ng
same,Content of PGE in 10^8 cells,[2]; control 2.36,3.06 ng
same,Weight of tumour tissue,[3]; control 1.30,0.75 g
same,Content of PGE in the tumour tissue,[3]; control 1.77,3.98 ng/g
same,Weight of tumour,"[4]; 7th day, control 0.09",0.08 g
same,Content of PGE in the tumour,"[4]; 7th day, control 2.59",2.80 ng/g
same,Weight of tumour,"[4]; 14th day, control 0.84",0.67 g
same,Content of PGE in the tumour,"[4]; 14th day, control 1.16",1.65 ng/g
same,Content of PGE in tumour,"[5]; 7th day, control 0.67",2.83 ng/g
same,Weight of tumour,"[5]; 7th day, control 1.34",1.04 g
same,Content of PGE in tumour,"[5]; 14th day, control 0.34",1.15 ng/g
same,Weight of tumour,"[5]; 14th day, control 4.01",3.10 g
same,level of 6-keto PGF1 in the blood of cancer-bearing rat (FIG. 14),[6],almost same as in normal rat
